One data set relates to DNA. To be noted: cited from earlier work.
The subject of data set [1] is cholesterol. To be noted: animal models; cited from earlier work.
A short description of data set [2]: Ingestion of HCA by persons, serum levels and appetite (controlled trials). The class given is in vivo. From the text: (§1) It has been shown that ingestion of compositions incorporating a salt of (−) hydroxycitric acid (HCA) leads to increased levels of serotonin. Serotonin levels, like ghrelin levels, also are related to NPY, and an increase in serotonin levels is a well-established mechanism of appetite suppression. Ingestion of HCA by persons and rodents results in a decrease in serum leptin and ghrelin levels and an increase in serum serotonin levels.

Data set [3] is described as follows: Ingestion of HCA by rodents, serum levels. The class given is in vivo.
Excerpt: as §1

In data set [4] the test system is cholesterol. To be noted: in vivo; cited from earlier work.

Regarding chromium picolinate, in the data set with DNA, the safety and toxicity entry was “damage DNA and be mutagenic”.

Consider Gymnemic acid, for which the cholesterol entry in the data set on cholesterol [1] is “lower cholesterol”.

As for `O=C(O)CC(O)(C(=O)O)C(O)C(=O)O` (single isomer, unassigned; (-)) [HCA, (−)hydroxycitric acid], the appetite entry in data set [2] (amount of food remaining on plates, controlled trials) is “time-dependent decrease in appetite”. In addition, in data set [2] (ingestion of HCA), the serum ghrelin levels result is given as “decrease”, the serum leptin levels result was “decrease” and the serum serotonin levels entry was “increase”. Moreover, in data set [3], the serum ghrelin levels entry was “decrease”, the serum leptin levels result was “decrease” and the serum serotonin levels result is on record as “increase”.

Regarding `O=C(O[C@@H]1Cc2c(O)cc(O)cc2O[C@@H]1c1cc(O)c(O)c(O)c1)c1cc(O)c(O)c(O)c1` [EGCG, epigallocatechin gallate], the cholesterol levels entry in the data set on cholesterol [4] was “reduce cholesterol levels”.

The values are drawn from US20040186181A1, “Method and composition for decreasing ghrelin levels” (InterHealth Nutraceuticals, Incorporated, priority 2003, published 2004).
